From the CheMixHub viscosity set

Assay: xn = mol fraction of the nth substance listed

C=CC[P+](c1ccccc1)(c1ccccc1)c1ccccc1.[Br-] + OCCOCCOCCO
viscosity [mPa·s], 100 kPa
Settings	293.15 K	298.15 K	303.15 K	308.15 K	313.15 K	318.15 K	323.15 K
x1 = 0.05879	76.63	57.94	44.82	35.26	28.28	22.99	18.97
x1 = 0.0909	95.29	71.69	54.83	42.76	33.94	27.41	22.42
x1 = 0.2	233.7	166.5	121.6	90.91	69.36	53.99	42.73

CC(C)[N+](=O)[O-] + Cc1ccc(C)cc1
293.15 K, 101.33 kPa
Settings	viscosity [mPa·s]
x1 = 0.1052	0.64
x1 = 0.2079	0.636
x1 = 0.2945	0.638
x1 = 0.3973	0.644
x1 = 0.4976	0.651
x1 = 0.6039	0.664
x1 = 0.7089	0.678
x1 = 0.8008	0.699
x1 = 0.8925	0.727

COc1ccccc1O + Nc1ccccc1
303.15 K, 101 kPa
Settings	viscosity [mPa·s]
x2 = 0.1	4.74
x2 = 0.2	4.9
x2 = 0.3	5.11
x2 = 0.35	5.15
x2 = 0.4	5.23
x2 = 0.45	5.12
x2 = 0.5	5.09
x2 = 0.55	4.94
x2 = 0.6	4.86
x2 = 0.7	4.58
x2 = 0.8	4.23
x2 = 0.9	3.61

Brc1ccccc1 + O=[N+]([O-])c1ccccc1
viscosity [mPa·s], 101 kPa
Settings	x2 = 0.117	x2 = 0.225	x2 = 0.345	x2 = 0.464	x2 = 0.554	x2 = 0.676	x2 = 0.79	x2 = 0.887
298.15 K	1.106	1.164	1.227	1.296	1.352	1.465	1.556	1.673
303.15 K	1.036	1.075	1.13	1.209	1.246	1.355	1.459	1.551
308.15 K	0.973	1.015	1.06	1.117	1.173	1.251	1.345	1.423

Brc1ccccc1 + C1CCOCC1
viscosity [mPa·s], 101 kPa
Settings	x2 = 0.097	x2 = 0.1996	x2 = 0.3053	x2 = 0.4011	x2 = 0.5073
298.15 K	1.05	1.037	1.021	1	0.9753
313.15 K	0.8682	0.8547	0.8377	0.8212	0.7989

C=CC[P+](c1ccccc1)(c1ccccc1)c1ccccc1.[Br-] + OCC(O)CO
101 kPa, x1 = 0.0667
Settings	viscosity [mPa·s]
296.84 K	1037
302.15 K	679.9
306.82 K	475.9
312.25 K	314.4

COC(=O)CC(=O)OC + Cc1ccccc1
303.15 K, 101 kPa
Settings	viscosity [mPa·s]
x1 = 0.0934	0.5584
x1 = 0.1891	0.6061
x1 = 0.2852	0.6706
x1 = 0.3836	0.7507
x1 = 0.4821	0.8493
x1 = 0.5831	0.9701
x1 = 0.6852	1.122
x1 = 0.7891	1.307
x1 = 0.8932	1.522

C1COCCO1 + CCCCCC
101 kPa
Settings	viscosity [mPa·s]
303.15 K, x1 = 0.111	0.297
303.15 K, x1 = 0.1961	0.317
303.15 K, x1 = 0.3001	0.348
303.15 K, x1 = 0.4033	0.389
303.15 K, x1 = 0.4962	0.436
303.15 K, x1 = 0.5966	0.498
303.15 K, x1 = 0.7169	0.601
303.15 K, x1 = 0.8008	0.7
303.15 K, x1 = 0.8988	0.854
308.15 K, x1 = 0.1153	0.301
308.15 K, x1 = 0.2223	0.338
308.15 K, x1 = 0.3421	0.388
308.15 K, x1 = 0.4004	0.415
308.15 K, x1 = 0.5204	0.481
308.15 K, x1 = 0.7211	0.644
308.15 K, x1 = 0.8214	0.75
308.15 K, x1 = 0.9211	0.879
313.15 K, x1 = 0.1153	0.287
313.15 K, x1 = 0.2223	0.321
313.15 K, x1 = 0.3421	0.367
313.15 K, x1 = 0.4004	0.391
313.15 K, x1 = 0.5204	0.454
313.15 K, x1 = 0.6232	0.521
313.15 K, x1 = 0.7211	0.603
313.15 K, x1 = 0.8214	0.704
313.15 K, x1 = 0.9211	0.824
318.15 K, x1 = 0.1153	0.275
318.15 K, x1 = 0.2223	0.307
318.15 K, x1 = 0.3421	0.349
318.15 K, x1 = 0.4004	0.373
318.15 K, x1 = 0.5204	0.431
318.15 K, x1 = 0.6232	0.494
318.15 K, x1 = 0.7211	0.568
318.15 K, x1 = 0.8214	0.659
318.15 K, x1 = 0.9211	0.769

BrCCBr + CN1CCC[C@H]1c1cccnc1
viscosity [mPa·s], 101.33 kPa
Settings	x2 = 0.121	x2 = 0.2341	x2 = 0.3736	x2 = 0.4915	x2 = 0.613	x2 = 0.7575	x2 = 0.8734
298.15 K	1.765	1.939	2.233	2.523	2.804	3.055	3.341
323.15 K	1.2	1.383	1.466	1.599	1.714	1.838	1.884
